Test results from patent publication US20120015961A1, “ISOTHIOUREA DERIVATIVES OR ISOUREA DERIVATIVES HAVING BACE1 INHIBITORY ACTIVITY” (SHIONOGI & CO., LTD., priority 2009, published 2012).

Key:
[1] = system: Neuroblastoma SH-SY5Y cells (SH/APPwt) with human wild-type β-APP excessively expressed; assay: Measurement of β-amyloid (Aβ) production inhibitory effect in cell; type: cell-based; conditions: amount needed to inhibit Aβ production by 50%, 24 hours incubation, Amyloid β1-40 HTRF
Experimental: Neuroblastoma SH-SY5Y cells (SH/APPwt) with human wild-type β-APP excessively expressed therein were prepared at 8×10^5 cells/mL, and 150 μl portions thereof were inoculated into each well of a 96-well culture plate (Falcon). The cells were cultured for 2 hours at 37° C. in a 5% gaseous carbon dioxide incubator. Then, a solution which had been preliminarily prepared by adding and suspending the test compound (DMSO (dimethyl sulfoxide) solution) so as to be 2 μl/50 μl medium was added to the cell sap. Namely, the final DMSO concentration was 1%, and the amount of the cell culture was 200 μl. After the incubation was performed for 24 hours from the addition of the test compound, 100 μl of the culture supernatant was collected from each fraction. The amount of the Aβ in each fraction was measured.
The […] was measured as follows. 10 μl of a homogeneous time resolved fluorescence (HTRF) measurement reagent (Amyloid β1-40 peptide; IBA Molecular Holding, S.A.) and 10 μl of the culture supernatant were put into a 384-well half area microplate (black microplate, Costar) and mixed with each other, and then left standing overnight at 4° C. while the light was shielded. Then, the fluorescence intensity (excitation wavelength: 337 nm, measurement wavelength: 620 nm and 665 nm) was measured with a Wallac 1420 multilabel counter (Perkin Elmer life sciences). The Aβ amount was determined from the count rate at each measurement wavelength (10000×Count 665/Count 620), and the amount needed to inhibit Aβ production by 50% (IC50) was calculated from at least six different dosages.

Recombinant human BACE1 = biological target: T1, Recombinant human BACE1 (Homo sapiens, UniProt P56817); assay: Assay of BACE1 inhibiting activity; type: biochemical; conditions: 50% inhibitory concentration against enzymatic activity, pH 5.0, 30° C., 3 hours
T1 construct: purchased R&D Systems
Experimental: 48.5 μL of substrate peptide solution (Biotin-XSEVNLDAEFRHDSGC-Eu: Xεε-amino-n-capronic acid, Eu=Europium cryptate) was added to each well of 96-hole half-area plate (a black plate: Costar Corporation), and after addition of 0.5 μl of the test compound (dissolved in […]) and 1 μl of Recombinant human BACE1 (R&D Systems), the reaction mixture was incubated at 30° C. for 3 hours. The substrate peptide was synthesized by reacting Cryptate TBPCOOH mono SMP (CIS bio international) with Biotin-XSEVNLDAEFRHDSGC (Peptide Institute, Inc.). The final concentrations of the substrate peptide and Recombinant human BACE1 were adjusted to 18 nM and 7.4 nM respectively, and the reaction was performed in sodium acetate buffer (50 mM sodium acetate, pH 5.0, 0.008% Triton X-100). After the completion of reaction, 50 μl of 8.0 μg/ml Streptavidin-XL665 (CIS bio international) dissolved in phosphate buffer (150 mM K2HPO4—KH2PO4, pH 7.0, 0.008% Triton X-100, 0.8 M KF) was added to each well and left stand at 30° C. for an hour. Then, fluorescence intensity was measured (excitation wavelength: 320 nm, measuring wavelength: 620 nm and 665 nm) using Wallac 1420 multilabel counter (Perkin Elmer life sciences). Enzymatic activity was determined from counting ratio of each wavelength (10,000×Count 665/Count 620) and 50% inhibitory concentration against the enzymatic activity was calculated.

T1 sequence (P56817 46-501): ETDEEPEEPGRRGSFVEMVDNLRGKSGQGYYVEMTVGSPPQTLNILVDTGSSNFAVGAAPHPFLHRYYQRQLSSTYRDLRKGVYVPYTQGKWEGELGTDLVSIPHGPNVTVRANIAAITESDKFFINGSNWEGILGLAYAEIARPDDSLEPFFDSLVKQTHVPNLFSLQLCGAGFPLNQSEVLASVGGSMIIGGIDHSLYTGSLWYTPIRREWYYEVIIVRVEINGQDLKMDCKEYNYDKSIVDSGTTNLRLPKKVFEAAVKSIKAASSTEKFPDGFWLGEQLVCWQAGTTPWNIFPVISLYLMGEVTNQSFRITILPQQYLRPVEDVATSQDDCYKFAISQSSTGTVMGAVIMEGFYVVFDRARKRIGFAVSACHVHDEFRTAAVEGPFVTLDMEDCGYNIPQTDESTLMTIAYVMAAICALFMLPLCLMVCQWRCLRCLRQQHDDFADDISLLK

Compound | IC50 ([1]; Homo sapiens, SH-SY5Y, 24 h) [µM] | IC50 (Recombinant human BACE1) [µM] | IC50 [1] [µM]
CO/C(N)=N/C(C)(c1ccc(F)cc1)c1cccc(NC(=O)c2ccc(C#N)cn2)c1 (single isomer, unassigned) [Compound 101] | ≤ 1 | ≤ 1 | –
CC#CCOc1cnc(C(=O)Nc2cccc(C/N=C(/N)SCc3cccnc3)c2)cn1 [Compound 10] | ≤ 1 | ≤ 1 | –
CC#CCOc1cnc(C(=O)Nc2cccc(C3(/N=C(/N)SC)CC3)c2)cn1 [Compound 14] | ≤ 1 | ≤ 1 | –
CC#CCOc1cnc(C(=O)Nc2ccc(F)c(C/N=C(/N)SC)c2)cn1 [Compound 16] | ≤ 1 | ≤ 1 | –
CC#CCOc1cnc(C(=O)Nc2cccc(C/N=C(/N)SCCCO)c2)cn1 [Compound 17] | ≤ 1 | ≤ 1 | –
CC#CCOc1cnc(C(=O)Nc2cccc(C(/N=C(/N)SC)c3ccc(OC)cc3)c2)cn1 (centres unmarked) [Compound 21] | ≤ 1 | ≤ 1 | –
COc1ccc(C(/N=C(/N)SC)c2cccc(NC(=O)c3ncc(Cl)cc3Cl)c2)cc1 (centres unmarked) [Compound 22] | ≤ 1 | – | –
COc1ccc(C(/N=C(/N)SC)c2cccc(NC(=O)c3ccc(C#N)cn3)c2)cc1 (centres unmarked) [Compound 23] | ≤ 1 | – | –
COc1ccc(C(/N=C(/N)SC)c2cccc(NC(=O)c3cnc(OC)cn3)c2)cc1 (centres unmarked) [Compound 24] | ≤ 1 | – | –
COc1cnc(C(=O)Nc2ccc(F)c(C(C)/N=C(/N)SC)c2)cn1 (centres unmarked) [Compound 26] | ≤ 1 | – | –
CS/C(N)=N\C(C)c1cc(NC(=O)c2ccc(C#N)cn2)ccc1F (centres unmarked) [Compound 27] | ≤ 1 | – | –
CO/C(N)=N/Cc1cccc(NC(=O)c2ccc(C#N)cn2)c1 [Compound 33] | ≤ 1 | – | –
CCCO/C(N)=N\Cc1cccc(NC(=O)c2ccc(C#N)cn2)c1 [Compound 34] | ≤ 1 | – | –
COCCO/C(N)=N\Cc1cccc(NC(=O)c2ccc(C#N)cn2)c1 [Compound 35] | ≤ 1 | – | –
COCCCO/C(N)=N/Cc1cccc(NC(=O)c2ccc(C#N)cn2)c1 [Compound 37] | ≤ 1 | – | –
CO/C(N)=N\Cc1cc(NC(=O)c2ccc(C#N)cn2)ccc1F [Compound 42] | ≤ 1 | – | –
CO/C(N)=N\Cc1cc(NC(=O)c2cnc(OC)cn2)ccc1F [Compound 43] | ≤ 1 | – | –
CO/C(N)=N\C1(c2cc(NC(=O)c3ccc(C#N)cn3)ccc2F)CC1 [Compound 46] | ≤ 1 | – | –
CO/C(N)=N\C1(c2cc(NC(=O)c3cnc(OC)cn3)ccc2F)CC1 [Compound 47] | ≤ 1 | – | –
CO/C(N)=N/C(c1cccc(F)c1)c1cccc(NC(=O)c2ccc(C#N)cn2)c1 (centres unmarked) [Compound 51] | ≤ 1 | ≤ 1 | –
CO/C(N)=N\[C@H](c1ccc(F)cc1)c1cccc(NC(=O)c2ccc(C#N)cn2)c1 [Compound 52] | ≤ 1 | ≤ 1 | –
CO/C(N)=N/C(c1cccc(NC(=O)c2ccc(C#N)cn2)c1)c1cccc(OC)c1 (centres unmarked) [Compound 53] | ≤ 1 | ≤ 1 | –
CO/C(N)=N\C(c1cccc(NC(=O)c2ccc(C#N)cn2)c1)c1ccc2c(c1)CCO2 (centres unmarked) [Compound 54] | ≤ 1 | ≤ 1 | –
CO/C(N)=N\C(c1cccc(NC(=O)c2ccc(C#N)cn2)c1)c1ccc(OC)c(F)c1 (centres unmarked) [Compound 55] | ≤ 1 | ≤ 1 | –

Compound | IC50 ([1]; Homo sapiens, SH-SY5Y, 24 h) [µM] | IC50 (Recombinant human BACE1) [µM] | IC50 [1] [µM]
CO/C(N)=N\C(c1ccc(OC)cc1)c1cccc(NC(=O)c2ccc(C#N)cn2)c1 (centres unmarked) [Compound 57] | ≤ 1 | ≤ 1 | –
CO/C(N)=N\C(c1ccc(OC)cc1)c1cccc(NC(=O)c2cnc(OC)cn2)c1 (centres unmarked) [Compound 58] | 0.018 | ≤ 1 | –
CC#CCOc1cnc(C(=O)Nc2cccc(C(C)(C)/N=C(/N)SC)c2)cn1 [Compound 64] | ≤ 1 | – | –
CC#CCOc1cnc(C(=O)Nc2ccc(Oc3ccccc3)c(C/N=C(/N)SC)c2)cn1 [Compound 68] | ≤ 1 | ≤ 1 | –
CC#CCOc1cnc(C(=O)Nc2ccc(Oc3cccc(OC)c3)c(C/N=C(/N)SC)c2)cn1 [Compound 70] | ≤ 1 | ≤ 1 | –
CO/C(N)=N\c1cccc2ccc(NC(=O)c3ccc(C#N)cn3)cc12 [Compound 75] | ≤ 1 | ≤ 1 | –
CS/C(N)=N\c1c(C)ccc2ccc(NC(=O)c3ccc(C#N)cn3)cc12 [Compound 79] | ≤ 1 | ≤ 1 | –
CO/C(N)=N/C(C)c1cccc(NC(=O)c2ccc(C#N)cn2)c1 (centres unmarked) [Compound 82] | ≤ 1 | – | –
CO/C(N)=N/C(C)c1cccc(NC(=O)c2cnc(OC)cn2)c1 (centres unmarked) [Compound 83] | ≤ 1 | – | –
CO/C(N)=N/C(C)c1cc(NC(=O)c2ccc(C#N)cn2)ccc1F (centres unmarked) [Compound 84] | ≤ 1 | – | –
CO/C(N)=N/C(C)c1cc(NC(=O)c2cnc(OC)cn2)ccc1F (centres unmarked) [Compound 85] | ≤ 1 | – | –
CO/C(N)=N/C(C)(c1ccc(F)cc1)c1cccc(NC(=O)c2ccc(C#N)cn2)c1 (centres unmarked) [Compound 88] | – | ≤ 1 | 0.024
CO/C(N)=N\C(c1ccc(Cl)cc1)c1cccc(NC(=O)c2cnc(C)cn2)c1 (centres unmarked) [Compound 90] | ≤ 1 | – | –
CO/C(N)=N\C(c1ccc(Cl)cc1)c1cccc(NC(=O)c2ccc(C#N)cn2)c1 (centres unmarked) [Compound 91] | ≤ 1 | ≤ 1 | –
CO/C(N)=N\C(c1ccc(Cl)cc1)c1cccc(NC(=O)c2cnc(OC)cn2)c1 (centres unmarked) [Compound 92] | ≤ 1 | ≤ 1 | –
CO/C(N)=N\C(c1ccc(Cl)cc1)c1cccc(NC(=O)c2ccc(Cl)cn2)c1 (centres unmarked) [Compound 93] | ≤ 1 | ≤ 1 | –
CC#CCOc1cnc(C(=O)Nc2cccc(C(/N=C(/N)OC)c3ccc(Cl)cc3)c2)cn1 (centres unmarked) [Compound 94] | ≤ 1 | 0.032 | –
COC(=N)NC(c1ccc(OC(C)C)cc1)c1cccc(NC(=O)c2ccc(C#N)cn2)c1 (centres unmarked) [Compound 95] | ≤ 1 | ≤ 1 | –
COC(=N)NC(c1ccc(OCc2ccccc2)cc1)c1cccc(NC(=O)c2ccc(C#N)cn2)c1 (centres unmarked) [Compound 96] | ≤ 1 | ≤ 1 | –
[2H]C([2H])([2H])Oc1cnc(C(=O)Nc2cccc(C3(/N=C(/N)OC)CC3)c2)cn1 [Compound 97] | ≤ 1 | ≤ 1 | –
CO/C(N)=N/C(C)(c1ccc(OC)cc1)c1cccc(NC(=O)c2ccc(C#N)cn2)c1 (centres unmarked) [Compound 98] | ≤ 1 | ≤ 1 | –
CO/C(N)=N\C(c1cccc(NC(=O)c2ccc(C#N)cn2)c1)C(F)(F)F (centres unmarked) [Compound 99] | ≤ 1 | – | –
[2H]C([2H])([2H])Oc1ccc(C(NC(=N)OC)c2cccc(NC(=O)c3ccc(C#N)cn3)c2)cc1 (centres unmarked) [Compound 102] | ≤ 1 | ≤ 1 | –
